Experiment [1] has as its target T1, Gastrin/cholecystokinin type B receptor (Homo sapiens, UniProt P32239).
T1 sequence (P32239 whole entry): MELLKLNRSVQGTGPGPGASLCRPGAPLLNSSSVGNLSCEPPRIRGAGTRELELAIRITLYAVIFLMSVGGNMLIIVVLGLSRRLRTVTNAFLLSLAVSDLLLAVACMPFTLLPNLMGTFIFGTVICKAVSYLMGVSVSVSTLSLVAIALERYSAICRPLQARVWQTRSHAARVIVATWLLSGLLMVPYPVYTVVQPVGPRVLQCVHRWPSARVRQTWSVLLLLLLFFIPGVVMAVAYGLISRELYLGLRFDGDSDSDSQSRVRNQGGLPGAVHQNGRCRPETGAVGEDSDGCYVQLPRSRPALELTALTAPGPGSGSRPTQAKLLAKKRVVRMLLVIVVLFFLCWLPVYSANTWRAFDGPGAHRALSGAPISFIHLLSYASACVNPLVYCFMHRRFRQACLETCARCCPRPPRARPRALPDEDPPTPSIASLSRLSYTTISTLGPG
As to the kind of experiment: Tested for 50% displacement of [125I]CCK-8 from membrane preparation isolated from CHO-K1 cells stably transfected with the cDNA of human Cholecystokinin type B receptor. It is filed as cell membranes. For orientation: In a radioligand displacement assay an active substance lowers the binding of a labelled ligand.

Another experiment concerns Mus musculus. Description: Tested in vivo for the relative efficacy (relative to CCK-8 (1 nmol/kg)) for mouse gallbladder emptying after ip administration (0.1 umol/kg). It is filed as functional.
In experiment [2] the target is Cholecystokinin receptor type A (Cavia porcellus). As to the kind of experiment: Concentration of compound that induced 50% of the maximal contraction in guinea pig gallbladder tissue when tested in vitro.
The target in experiment [3] is T2, Cholecystokinin receptor type A (Homo sapiens, UniProt P32238).
T2 sequence (P32238 whole entry): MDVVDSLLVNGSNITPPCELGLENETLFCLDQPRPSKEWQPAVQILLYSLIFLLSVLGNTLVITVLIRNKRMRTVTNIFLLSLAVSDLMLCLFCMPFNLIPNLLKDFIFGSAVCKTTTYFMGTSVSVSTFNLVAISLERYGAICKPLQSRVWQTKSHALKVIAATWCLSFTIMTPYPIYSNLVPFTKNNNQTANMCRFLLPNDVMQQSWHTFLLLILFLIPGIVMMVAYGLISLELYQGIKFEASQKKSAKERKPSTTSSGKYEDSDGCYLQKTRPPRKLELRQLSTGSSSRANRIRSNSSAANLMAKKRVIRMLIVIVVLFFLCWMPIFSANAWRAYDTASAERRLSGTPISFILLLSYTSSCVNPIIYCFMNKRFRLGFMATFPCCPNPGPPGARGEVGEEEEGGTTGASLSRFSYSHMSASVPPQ
As to the kind of experiment: Tested for the 50% displacement of [125I]CCK-8 from membrane preparation isolated from CHO-K1 cells stably transfected with the cDNA of human Cholecystokinin type A receptor. It is filed as cell membranes.

Consider five compounds from ChEMBL document CHEMBL1150449, “Conversion of acyclic nonpeptide CCK antagonists into CCK agonists” (Bioorg Med Chem Lett, 1997).

As to `CC(C)N(C(=O)CN(C(=O)[C@@H](CCC(=O)O)NC(=O)Nc1ccccc1)c1ccccc1)c1ccccc1`, the results for the IC50 in experiment [1] and in experiment [3] were 10000 nM and 1580 nM, respectively. This compound also yielded a Relative efficacy in the experiment with Mus musculus of 0.6. Also, the EC50 (commonly the midpoint of the concentration-response curve) in experiment [2] is 210 nM.
Take `COc1ccc(N(C(=O)CN(C(=O)[C@H](CCC(=O)O)NC(=O)Nc2ccccc2)c2ccccc2)C(C)C)cc1`: the EC50 in experiment [2] is 5600 nM.
`COc1ccc(N(C(=O)CN(C(=O)[C@@H](CCC(=O)O)NC(=O)Nc2ccccc2)c2ccccc2)C(C)C)cc1`: the results for the IC50 in experiment [1] and in experiment [3] were 31600 nM and 251 nM, respectively. The Relative efficacy in the experiment on Mus musculus worked out at 0.8. In experiment [2], the EC50 turned out to be 110 nM.
In the same order, the values of `CC(C)N(C(=O)CN(C(=O)CNC(=O)Nc1ccccc1)c1ccccc1)c1ccccc1` are 1580 nM, 3160 nM, <0.2 and 300 nM.
For the compound `CCCCCN(CC(=O)N(c1ccccc1)C(C)C)C(=O)[C@@H](CCC(=O)O)NC(=O)Nc1ccccc1`, the Relative efficacy in the experiment with Mus musculus came to 0.3.
